Data from PubChem BioAssay (NCI).
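Following 48 hours of exposure in 96-well plates, responses at five concentrations were used to interpolate endpoints linearly. The concentration for full growth arrest is given as TGI.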

Assays:
Assay in all cases: NCI anticancer screen, dose series, 48 h
NCI-H226 lung = tested on: NCI-H226 lung
SF-539 CNS = tested on: SF-539 CNS
HL-60(TB) leukemia = tested on: HL-60(TB) leukemia
CAKI-1 renal = tested on: CAKI-1 renal
EKVX NSCLC = tested on: EKVX NSCLC
LOX IMVI melanoma = tested on: LOX IMVI melanoma
SK-MEL-28 melanoma = tested on: SK-MEL-28 melanoma
DLD-1 colon = tested on: DLD-1 colon
K-562 leukemia = tested on: K-562 leukemia
DMS 273 small cell lung = tested on: DMS 273 small cell lung
HCT-15 colon = tested on: HCT-15 colon
HOP-62 NSCLC = tested on: HOP-62 NSCLC
CCRF-CEM leukemia = tested on: CCRF-CEM leukemia
UACC-62 melanoma = tested on: UACC-62 melanoma
XF 498 CNS = tested on: XF 498 CNS
HOP-92 NSCLC = tested on: HOP-92 NSCLC
SNB-19 CNS = tested on: SNB-19 CNS
SF-268 CNS = tested on: SF-268 CNS
786-0 renal = tested on: 786-0 renal
M19-MEL melanoma = tested on: M19-MEL melanoma
HCC-2998 colon = tested on: HCC-2998 colon
ACHN renal = tested on: ACHN renal
KM12 colon = tested on: KM12 colon
U251 CNS = tested on: U251 CNS
SK-OV-3 ovarian = tested on: SK-OV-3 ovarian
KM20L2 colon = tested on: KM20L2 colon
OVCAR-4 ovarian = tested on: OVCAR-4 ovarian
DMS 114 small cell lung = tested on: DMS 114 small cell lung
SK-MEL-5 melanoma = tested on: SK-MEL-5 melanoma
MALME-3M melanoma = tested on: MALME-3M melanoma
OVCAR-8 ovarian = tested on: OVCAR-8 ovarian
IGROV1 ovarian = tested on: IGROV1 ovarian
NCI-H522 lung = tested on: NCI-H522 lung
OVCAR-5 ovarian = tested on: OVCAR-5 ovarian
RXF 393 renal = tested on: RXF 393 renal
SW-620 colon = tested on: SW-620 colon
M14 melanoma = tested on: M14 melanoma
UACC-257 melanoma = tested on: UACC-257 melanoma
NCI-H23 lung = tested on: NCI-H23 lung
LXFL 529 NSCLC = tested on: LXFL 529 NSCLC
SNB-78 CNS = tested on: SNB-78 CNS
TK-10 renal = tested on: TK-10 renal
OVCAR-3 ovarian = tested on: OVCAR-3 ovarian
NCI-H460 lung = tested on: NCI-H460 lung
RXF-631 renal = tested on: RXF-631 renal
COLO 205 colon = tested on: COLO 205 colon
SF-295 CNS = tested on: SF-295 CNS
A498 renal = tested on: A498 renal
SN12C renal = tested on: SN12C renal
SNB-75 CNS = tested on: SNB-75 CNS
HCT-116 colon = tested on: HCT-116 colon
UO-31 renal = tested on: UO-31 renal
HT29 colon = tested on: HT29 colon
A549 NSCLC = tested on: A549 NSCLC
RPMI-8226 leukemia = tested on: RPMI-8226 leukemia
SR leukemia = tested on: SR leukemia
MOLT-4 leukemia = tested on: MOLT-4 leukemia
SK-MEL-2 melanoma = tested on: SK-MEL-2 melanoma
HOP-18 NSCLC = tested on: HOP-18 NSCLC

Question: What does the source list for `COC(=O)C(Cc1c[nH]c2ccccc12)NC(=O)C(Cc1c[nH]c2ccccc12)NC(=O)OCc1ccccc1` (centres undefined)?
Answer: TGI (NCI-H226 lung): 40.3 µM; TGI (SF-539 CNS): 30.4 µM; TGI (HL-60(TB) leukemia): 48.7 µM; TGI (CAKI-1 renal): 40 µM; TGI (EKVX NSCLC): 33.5 µM; TGI (LOX IMVI melanoma): 32.2 µM; TGI (SK-MEL-28 melanoma): 31.8 µM; TGI (DLD-1 colon): 32.7 µM; TGI (K-562 leukemia): 56.6 µM; TGI (DMS 273 small cell lung): 29.8 µM; TGI (HCT-15 colon): 31.3 µM; TGI (HOP-62 NSCLC): 37.6 µM; TGI (CCRF-CEM leukemia): 61.3 µM; TGI (UACC-62 melanoma): 33.4 µM; TGI (XF 498 CNS): 30.7 µM; TGI (HOP-92 NSCLC): 48.6 µM; TGI (SNB-19 CNS): 31.6 µM; TGI (SF-268 CNS): 34.6 µM; TGI (786-0 renal): 29.7 µM; TGI (M19-MEL melanoma): 32.4 µM; TGI (HCC-2998 colon): 31.6 µM; TGI (ACHN renal): 39.2 µM; TGI (KM12 colon): 33.5 µM; TGI (U251 CNS): 30.6 µM; TGI (SK-OV-3 ovarian): 34.3 µM; TGI (KM20L2 colon): 32.2 µM; TGI (OVCAR-4 ovarian): 30.1 µM; TGI (DMS 114 small cell lung): 33.5 µM; TGI (SK-MEL-5 melanoma): 82.2 µM; TGI (MALME-3M melanoma): > 100 µM; TGI (OVCAR-8 ovarian): 31.7 µM; TGI (IGROV1 ovarian): 36.6 µM; TGI (NCI-H522 lung): 32.2 µM; TGI (OVCAR-5 ovarian): 31.5 µM; TGI (RXF 393 renal): 35.1 µM; TGI (SW-620 colon): 31.3 µM; TGI (M14 melanoma): 38 µM; TGI (UACC-257 melanoma): > 100 µM; TGI (NCI-H23 lung): 32.2 µM; TGI (LXFL 529 NSCLC): 31.2 µM; TGI (SNB-78 CNS): 60.2 µM; TGI (TK-10 renal): 41.4 µM; TGI (OVCAR-3 ovarian): 29 µM; TGI (NCI-H460 lung): 32 µM; TGI (RXF-631 renal): 51.1 µM; TGI (COLO 205 colon): 30.6 µM; TGI (SF-295 CNS): 31.9 µM; TGI (A498 renal): > 100 µM; TGI (SN12C renal): 30.9 µM; TGI (SNB-75 CNS): 39.9 µM; TGI (HCT-116 colon): 32.4 µM; TGI (UO-31 renal): 44 µM; TGI (HT29 colon): 34.7 µM; TGI (A549 NSCLC): 33 µM; TGI (RPMI-8226 leukemia): 34.6 µM

Question: How did the TGI (NCI-H226 lung) turn out when `O=C1c2ccccc2C(=O)N1CCn1nc(-c2ccccc2)cc(-c2ccccc2)c1=O` was run?
Answer: > 100 µM

Question: What about the TGI (SF-539 CNS) of the same compound?
Answer: > 100 µM

Question: What about the TGI (HL-60(TB) leukemia) of the same compound?
Answer: 39 µM

Question: And the TGI (EKVX NSCLC)?
Answer: > 100 µM

Question: What about the TGI (SK-MEL-28 melanoma) of the same compound?
Answer: > 100 µM

Question: What about the TGI (DLD-1 colon) of the same compound?
Answer: > 100 µM

Question: What about the TGI (SR leukemia) of the same compound?
Answer: 69.8 µM

Question: And the TGI (MOLT-4 leukemia)?
Answer: > 100 µM

Question: And the TGI (K-562 leukemia)?
Answer: > 100 µM

Question: What about the TGI (DMS 273 small cell lung) of the same compound?
Answer: > 100 µM

Question: And the TGI (HCT-15 colon)?
Answer: > 100 µM

Question: What about the TGI (HOP-62 NSCLC) of the same compound?
Answer: > 100 µM

Question: What about the TGI (CCRF-CEM leukemia) of the same compound?
Answer: > 100 µM

Question: What about the TGI (UACC-62 melanoma) of the same compound?
Answer: > 100 µM

Question: And the TGI (HOP-92 NSCLC)?
Answer: 96.8 µM

Question: What about the TGI (SK-MEL-2 melanoma) of the same compound?
Answer: > 100 µM

Question: What about the TGI (SNB-19 CNS) of the same compound?
Answer: > 100 µM

Question: What about the TGI (SF-268 CNS) of the same compound?
Answer: > 100 µM

Question: What about the TGI (786-0 renal) of the same compound?
Answer: > 100 µM

Question: What about the TGI (M19-MEL melanoma) of the same compound?
Answer: > 100 µM

Question: And the TGI (HCC-2998 colon)?
Answer: > 100 µM

Question: And the TGI (ACHN renal)?
Answer: > 100 µM

Question: What about the TGI (KM12 colon) of the same compound?
Answer: > 100 µM

Question: And the TGI (U251 CNS)?
Answer: > 100 µM

Question: And the TGI (SK-OV-3 ovarian)?
Answer: > 100 µM

Question: And the TGI (KM20L2 colon)?
Answer: > 100 µM

Question: And the TGI (OVCAR-4 ovarian)?
Answer: > 100 µM

Question: What about the TGI (DMS 114 small cell lung) of the same compound?
Answer: > 100 µM

Question: What about the TGI (SK-MEL-5 melanoma) of the same compound?
Answer: > 100 µM

Question: What about the TGI (MALME-3M melanoma) of the same compound?
Answer: > 100 µM

Question: What about the TGI (OVCAR-8 ovarian) of the same compound?
Answer: > 100 µM

Question: What about the TGI (IGROV1 ovarian) of the same compound?
Answer: > 100 µM

Question: What about the TGI (NCI-H522 lung) of the same compound?
Answer: > 100 µM

Question: What about the TGI (OVCAR-5 ovarian) of the same compound?
Answer: > 100 µM

Question: And the TGI (RXF 393 renal)?
Answer: > 100 µM

Question: And the TGI (SW-620 colon)?
Answer: > 100 µM

Question: What about the TGI (M14 melanoma) of the same compound?
Answer: > 100 µM

Question: What about the TGI (UACC-257 melanoma) of the same compound?
Answer: > 100 µM

Question: And the TGI (NCI-H23 lung)?
Answer: > 100 µM

Question: What about the TGI (HOP-18 NSCLC) of the same compound?
Answer: > 100 µM

Question: What about the TGI (LXFL 529 NSCLC) of the same compound?
Answer: > 100 µM

Question: What about the TGI (SNB-78 CNS) of the same compound?
Answer: > 100 µM

Question: What about the TGI (OVCAR-3 ovarian) of the same compound?
Answer: > 100 µM

Question: What about the TGI (NCI-H460 lung) of the same compound?
Answer: > 100 µM

Question: What about the TGI (RXF-631 renal) of the same compound?
Answer: > 100 µM

Question: And the TGI (COLO 205 colon)?
Answer: > 100 µM

Question: And the TGI (SF-295 CNS)?
Answer: > 100 µM

Question: What about the TGI (SN12C renal) of the same compound?
Answer: > 100 µM

Question: What about the TGI (SNB-75 CNS) of the same compound?
Answer: > 100 µM

Question: What about the TGI (HCT-116 colon) of the same compound?
Answer: > 100 µM

Question: What about the TGI (UO-31 renal) of the same compound?
Answer: > 100 µM

Question: What about the TGI (HT29 colon) of the same compound?
Answer: > 100 µM

Question: And the TGI (A549 NSCLC)?
Answer: > 100 µM

Question: And the TGI (RPMI-8226 leukemia)?
Answer: 36.9 µM
